From PubChem BioAssay (NCI)
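Where inhibition never reached the appropriate level, the endpoint shown equals the highest concentration tested. Otherwise, values were interpolated linearly from a five-concentration, 48-hour dose response in 96-well plates. At the TGI there is no net growth.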

How the values were obtained:
Experiment in all cases: DTP human tumour cell line panel, 48 h
[1] = tested on: 786-0 renal
[2] = tested on: A498 renal
[3] = tested on: A549 NSCLC
[4] = tested on: ACHN renal
[5] = tested on: CAKI-1 renal
[6] = tested on: CCRF-CEM leukemia
[7] = tested on: COLO 205 colon
[8] = tested on: DLD-1 colon
[9] = tested on: DMS 114 small cell lung
[10] = tested on: DMS 273 small cell lung
[11] = tested on: EKVX NSCLC
[12] = tested on: HCC-2998 colon
[13] = tested on: HCT-116 colon
[14] = tested on: HCT-15 colon
[15] = tested on: HL-60(TB) leukemia
[16] = tested on: HOP-18 NSCLC
[17] = tested on: HOP-62 NSCLC
[18] = tested on: HOP-92 NSCLC
[19] = tested on: HT29 colon
[20] = tested on: IGROV1 ovarian
[21] = tested on: K-562 leukemia
[22] = tested on: KM12 colon
[23] = tested on: KM20L2 colon
[24] = tested on: LOX IMVI melanoma
[25] = tested on: LXFL 529 NSCLC
[26] = tested on: M14 melanoma
[27] = tested on: M19-MEL melanoma
[28] = tested on: MALME-3M melanoma
[29] = tested on: MOLT-4 leukemia
[30] = tested on: NCI-H226 lung
[31] = tested on: NCI-H23 lung
[32] = tested on: NCI-H460 lung
[33] = tested on: NCI-H522 lung
[34] = tested on: OVCAR-3 ovarian
[35] = tested on: OVCAR-4 ovarian
[36] = tested on: OVCAR-5 ovarian
[37] = tested on: OVCAR-8 ovarian
[38] = tested on: RPMI-8226 leukemia
[39] = tested on: RXF-631 renal
[40] = tested on: SF-268 CNS
[41] = tested on: SF-295 CNS
[42] = tested on: SF-539 CNS
[43] = tested on: SK-MEL-28 melanoma
[44] = tested on: SK-MEL-5 melanoma
[45] = tested on: SK-OV-3 ovarian
[46] = tested on: SN12C renal
[47] = tested on: SNB-19 CNS
[48] = tested on: SNB-75 CNS
[49] = tested on: SNB-78 CNS
[50] = tested on: SW-620 colon
[51] = tested on: TK-10 renal
[52] = tested on: U251 CNS
[53] = tested on: UACC-257 melanoma
[54] = tested on: UACC-62 melanoma
[55] = tested on: UO-31 renal
[56] = tested on: XF 498 CNS
[57] = tested on: RXF 393 renal
[58] = tested on: SK-MEL-2 melanoma
[59] = tested on: SR leukemia

For COc1ccc(C)cc1-c1cc(Sc2ccccc2)c(-c2cc(C)ccc2OC)o1, the TGI [1] was over 31.6 µM, the TGI [2] was over 31.6 µM and the TGI [3] was over 31.6 µM. For the same molecule, the TGI [4] was over 31.6 µM, the TGI [5] was over 31.6 µM and the TGI [6] was over 31.6 µM. For the same molecule, the TGI [7] was over 31.6 µM, the TGI [8] was over 31.6 µM and the TGI [9] was over 31.6 µM. For the same molecule, the TGI [10] was over 31.6 µM, the TGI [11] was over 31.6 µM and the TGI [12] was over 31.6 µM. For the same molecule, the TGI [13] was over 31.6 µM, the TGI [14] was over 31.6 µM and the TGI [15] was over 31.6 µM. The TGI [16] was over 31.6 µM, the TGI [17] was over 31.6 µM and the TGI [18] was over 31.6 µM. For the same molecule, the TGI [19] was over 31.6 µM, the TGI [20] was over 31.6 µM and the TGI [21] was over 31.6 µM. It also gave a TGI [22] of over 31.6 µM, a TGI [23] of over 31.6 µM and a TGI [24] of over 100 µM. The TGI [25] was over 31.6 µM, the TGI [26] was over 31.6 µM and the TGI [27] was over 31.6 µM. For the same molecule, the TGI [28] was over 31.6 µM, the TGI [29] was over 31.6 µM and the TGI [30] was over 31.6 µM. The TGI [31] was over 31.6 µM, the TGI [32] was over 31.6 µM and the TGI [33] was over 31.6 µM. The TGI [34] was over 31.6 µM, the TGI [35] was over 31.6 µM and the TGI [36] was over 100 µM. It also gave a TGI [37] of over 31.6 µM, a TGI [38] of over 31.6 µM and a TGI [39] of over 31.6 µM. For the same molecule, the TGI [40] was over 31.6 µM, the TGI [41] was over 100 µM and the TGI [42] was over 31.6 µM. The TGI [43] was over 31.6 µM, the TGI [44] was over 31.6 µM and the TGI [45] was over 31.6 µM. For the same molecule, the TGI [46] was over 31.6 µM, the TGI [47] was over 31.6 µM and the TGI [48] was over 31.6 µM. For the same molecule, the TGI [49] was over 31.6 µM, the TGI [50] was over 31.6 µM and the TGI [51] was over 31.6 µM. It also gave a TGI [52] of over 31.6 µM, a TGI [53] of over 31.6 µM and a TGI [54] of over 31.6 µM. The TGI [55] was over 31.6 µM and the TGI [56] was over 100 µM.

Cc1ccc(Oc2ccc(C)cc2N)cc1 was tested, and the TGI [1] was over 100 µM, the TGI [2] was over 100 µM and the TGI [3] was over 100 µM. For the same molecule, the TGI [6] was over 100 µM, the TGI [7] was over 100 µM and the TGI [8] was over 100 µM. It also gave a TGI [9] of over 100 µM, a TGI [10] of over 100 µM and a TGI [11] of over 100 µM. It also gave a TGI [12] of over 100 µM, a TGI [13] of over 100 µM and a TGI [14] of over 100 µM. For the same molecule, the TGI [15] was over 100 µM, the TGI [16] was over 100 µM and the TGI [17] was over 100 µM. The TGI [18] was 95.3 µM, the TGI [19] was over 100 µM and the TGI [20] was over 100 µM. It also gave a TGI [21] of over 100 µM, a TGI [22] of over 100 µM and a TGI [23] of over 100 µM. The TGI [24] was over 100 µM, the TGI [25] was over 100 µM and the TGI [26] was over 100 µM. It also gave a TGI [27] of over 100 µM, a TGI [28] of over 100 µM and a TGI [29] of over 100 µM. It also gave a TGI [30] of over 100 µM, a TGI [31] of over 100 µM and a TGI [32] of over 100 µM. For the same molecule, the TGI [34] was over 100 µM, the TGI [35] was over 100 µM and the TGI [36] was over 100 µM. The TGI [37] was over 100 µM, the TGI [38] was over 100 µM and the TGI [57] was over 100 µM. For the same molecule, the TGI [40] was over 100 µM, the TGI [41] was over 100 µM and the TGI [42] was over 100 µM. The TGI [58] was over 100 µM, the TGI [43] was over 100 µM and the TGI [44] was over 100 µM. It also gave a TGI [45] of over 100 µM, a TGI [46] of over 100 µM and a TGI [47] of over 100 µM. It also gave a TGI [48] of 73.3 µM, a TGI [49] of over 100 µM and a TGI [59] of over 100 µM. It also gave a TGI [50] of over 100 µM, a TGI [51] of over 100 µM and a TGI [52] of over 100 µM. The TGI [53] was over 100 µM, the TGI [54] was over 100 µM and the TGI [55] was over 100 µM.
